Values of other authors, collected in patent US20260356814A1, “INDOLINE DERIVATIVES AS SEROTONERGIC AGENTS USEFUL FOR THE TREATMENT OF DISORDERS RELATED THERETO” (MINDSET PHARMA INC., priority 2022, published 2026).
Read-outs that look alike come from different tables or passages of the source.

Columns and labels:
[1] = system: tobacco use disorder; settings: cited from earlier work
[2] = system: absolute metabolic rate of glucose in frontal and other cortical regions, striatal and limbic subcortical structures; settings: 15 or 20 mg orally, healthy participants; cited from earlier work
[3] = system: subpopulations of low attentive and low motivated rats; settings: rat, in vivo; cited from earlier work
[4] = controlled setting; cited from earlier work
[5] = target: human 5-HT2A receptor (Homo sapiens, UniProt P28223); settings: cited from earlier work
Sequence of human 5-HT2A receptor (P28223 whole entry): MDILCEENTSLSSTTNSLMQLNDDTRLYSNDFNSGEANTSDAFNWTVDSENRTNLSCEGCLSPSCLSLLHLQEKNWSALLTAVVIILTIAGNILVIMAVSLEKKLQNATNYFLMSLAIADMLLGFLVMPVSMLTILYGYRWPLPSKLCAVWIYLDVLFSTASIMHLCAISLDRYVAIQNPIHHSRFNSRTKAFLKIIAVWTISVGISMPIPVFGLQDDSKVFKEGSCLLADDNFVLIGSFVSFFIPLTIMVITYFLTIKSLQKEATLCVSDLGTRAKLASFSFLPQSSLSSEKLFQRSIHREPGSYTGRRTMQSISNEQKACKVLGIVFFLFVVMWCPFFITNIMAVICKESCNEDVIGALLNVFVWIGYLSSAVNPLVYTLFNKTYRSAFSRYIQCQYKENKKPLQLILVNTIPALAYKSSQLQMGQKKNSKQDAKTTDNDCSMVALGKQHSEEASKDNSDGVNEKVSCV

[6] = target: 5-HT2A and 5-HT2C receptors; settings: compared with LSD; cited from earlier work
[7] = system: depression and anxiety associated with life-threatening disease; settings: in a supportive setting; cited from earlier work
[8] = system: 5-HT2 receptor; settings: daily administration; cited from earlier work
[9] = system: brain's default mode network; settings: intravenously administered; cited from earlier work

CN(C)CCc1c[nH]c2cccc(OP(=O)(O)O)c12 [Psilocybin, 4-phosphoryloxy-N,N-dimethyltrypatmine]
abstinence rate ([1]; 12 months follow-up): 67% | abstinence rate ([1]; six months follow-up): 80% | absolute metabolic rate of glucose [2]: increased absolute metabolic rate of glucose in frontal, and to a lesser extent in other, cortical regions as well as in striatal and limbic subcortical structures | performance on 5 choice serial reaction time and progressive ratio tasks [3]: improved performance on 5 choice serial reaction time and progressive ratio tasks | headache [4]: transient, delayed headache, with incidence, duration, and severity increased in a dose-related manner | affinity for 5-HT2A, human versus rat receptor [5]: stronger affinity for the human 5-HT2A receptor than for the rat receptor | K (i) for 5-HT2A and 5-HT2C relative to LSD [6]: lower K (i) for both 5-HT2A and 5-HT2C receptors than LSD | anti-depressant and anxiolytic effects [7]: significant and sustained anti-depressant and anxiolytic effects | 5-HT2 receptor density in rat brain [8]: reduce 5-HT2 receptor density in rat brain | oscillatory power in areas of the brain's default mode network [9]: decreases in oscillatory power in areas of the brain's default mode network
